Columns and labels:
Experiment in all cases: relative viability (nuclei count vs DMSO), 5 days (fraction); higher = more cells survive
Crenolanib + Navitoclax = compound: CC1(COc2ccc3c(c2)ncn3-c2ccc3cccc(N4CCC(N)CC4)c3n2)COC1 [Crenolanib] + CC1(C)CCC(c2ccc(Cl)cc2)=C(CN2CCN(c3ccc(C(=O)NS(=O)(=O)c4ccc(N[C@H](CCN5CCOCC5)CSc5ccccc5)c(S(=O)(=O)C(F)(F)F)c4)cc3)CC2)C1 [Navitoclax] (partner 0.5 µM)
Method in brief: (§1)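 Lung cancer cell lines, seeded in 1536-well plates, were treated the following day by pin tool with a single drug or with five library-drug doses (not always all listed) in √10 steps on top of a fixed anchor-drug dose. Cells were fixed and nuclei stained in one step after 5 days, and nuclei were counted. Relative viability is the nuclei count for treated wells divided by that for vehicle wells, reported as medians of duplicate plates.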

Crenolanib + Lapatinib = compound: CC1(COc2ccc3c(c2)ncn3-c2ccc3cccc(N4CCC(N)CC4)c3n2)COC1 [Crenolanib] + CS(=O)(=O)CCNCc1ccc(-c2ccc3ncnc(Nc4ccc(OCc5cccc(F)c5)c(Cl)c4)c3c2)o1 [Lapatinib] (partner 2 µM)
Method in brief: as §1

Tivantinib + Luminespib = compound: O=C1NC(=O)[C@@H](c2cn3c4c(cccc24)CCC3)[C@@H]1c1c[nH]c2ccccc12 [Tivantinib] + CCNC(=O)c1noc(-c2cc(C(C)C)c(O)cc2O)c1-c1ccc(CN2CCOCC2)cc1 [Luminespib] (partner 0.01 µM)
Method in brief: as §1

Tivantinib + Dasatinib = compound: O=C1NC(=O)[C@@H](c2cn3c4c(cccc24)CCC3)[C@@H]1c1c[nH]c2ccccc12 [Tivantinib] + Cc1nc(Nc2ncc(C(=O)Nc3c(C)cccc3Cl)s2)cc(N2CCN(CCO)CC2)n1 [Dasatinib] (partner 0.075 µM)
Method in brief: as §1

Cell Line | relative viability (Crenolanib + Navitoclax; first compound 0.01 µM) | relative viability (Crenolanib + Navitoclax; first compound 0.03162 µM) | relative viability (Crenolanib + Navitoclax; first compound 0.1 µM) | relative viability (Crenolanib + Navitoclax; first compound 0.3162 µM) | relative viability (Crenolanib + Navitoclax; first compound 1 µM) | relative viability (Crenolanib + Lapatinib; first compound 0.01 µM) | relative viability (Crenolanib + Lapatinib; first compound 0.03162 µM) | relative viability (Crenolanib + Lapatinib; first compound 0.1 µM) | relative viability (Crenolanib + Lapatinib; first compound 0.3162 µM) | relative viability (Crenolanib + Lapatinib; first compound 1 µM) | relative viability (Tivantinib + Luminespib; first compound 0.01 µM) | relative viability (Tivantinib + Luminespib; first compound 0.03162 µM) | relative viability (Tivantinib + Luminespib; first compound 0.1 µM) | relative viability (Tivantinib + Luminespib; first compound 0.3162 µM) | relative viability (Tivantinib + Dasatinib; first compound 0.01 µM) | relative viability (Tivantinib + Dasatinib; first compound 0.03162 µM) | relative viability (Tivantinib + Dasatinib; first compound 0.1 µM) | relative viability (Tivantinib + Dasatinib; first compound 0.3162 µM)
NCI-H1666 | 1.07 | 0.998 | 0.872 | 1.19 | 0.971 | 0.772 | 0.579 | 0.799 | 0.872 | 0.509 | 0.963 | 1.05 | 0.944 | 0.939 | 0.765 | 0.785 | 0.77 | 0.742
NCI-H1944 | 0.987 | 1.03 | 1.04 | 1.13 | 1.03 | 0.814 | 0.809 | 0.839 | 0.617 | 0.698 | 0.712 | 0.609 | 0.697 | 0.608 | 0.219 | 0.196 | 0.211 | 0.208
NCI-H1734 | 0.846 | 0.778 | 0.796 | 0.952 | 0.886 | 1 | 1.08 | 0.995 | 1.27 | 0.937 | 0.206 | 0.198 | 0.0957 | 0.191 | 0.425 | 0.472 | 0.436 | 0.478
A-427 | 0.995 | 0.912 | 0.999 | 1.02 | 0.966 | 0.996 | 0.998 | 1.04 | 1.06 | 1.06 | 0.971 | 0.873 | 0.899 | 0.76 | 0.677 | 0.731 | 0.712 | 0.686
NCI-H2405 | 1.34 | 0.917 | 0.441 | 0.765 | 0.806 | 1.02 | 1.13 | 0.85 | 0.998 | 0.948 | 0.77 | 0.908 | 0.651 | 0.586 | 0.213 | 0.213 | 0.218 | 0.169
NCI-H1437 | 1.1 | 1.11 | 1.15 | 1.18 | 1.11 | 0.751 | 0.762 | 0.808 | 0.873 | 0.688 | 1.13 | 1.15 | 1.1 | 1.06 | 0.427 | 0.334 | 0.429 | 0.376
RERF-LC-KJ | 0.962 | 0.729 | 1.04 | 1.33 | 0.948 | 0.917 | 0.886 | 0.903 | 0.872 | 0.812 | 1.25 | 1.29 | 1.24 | 1.27 | 0.873 | 0.895 | 0.757 | 0.585
NCI-H23 | 0.805 | 0.992 | 0.899 | 1.03 | 0.822 | 1.04 | 1.16 | 0.977 | 1.22 | 0.992 | 0.278 | – | 0.215 | 0.226 | 0.876 | 0.809 | 0.699 | 0.782
HCC-15 | 0.694 | 0.673 | 0.677 | 0.784 | 0.729 | 0.829 | 0.895 | 0.807 | 0.83 | 0.793 | 0.246 | 0.285 | 0.456 | 0.289 | 0.609 | 0.591 | 0.587 | 0.639

— the supplement of paper PMC10307832
